Assay results from article PMC12557380, “Optimization of 2,8-Diaryl-1,5-naphthyridines as Plasmodium falciparum Phosphatidylinositol 4‑Kinase Inhibitors with Improved ADME Profiles and In Vivo Efficacy” (Journal of Medicinal Chemistry, 2025).
pIC50: −log10 of the molar value. ≈ marks a conversion by molar mass, not a printed value. Where two headings read alike, the source gives them in different places.

Legend:
physchem [1] = settings: 25 °C, pH 6.5, aqueous buffer, thermodynamic from solid
[2] = system: P. falciparum NF54 (PfNF54) parasites; test: In vitro antiplasmodial asexual blood stage activity, pLDH assay, NF54; type: cell-based, Plasmodium falciparum
[3] = system: P. falciparum K1 (PfK1) strain; test: In vitro antiplasmodial asexual blood stage activity, pLDH assay, K1; type: cell-based; settings: Plasmodium falciparum
[4] = system: Chinese hamster ovary cells; test: Cytotoxicity, MTT assay, CHO; type: cell-based; settings: Cricetulus griseus, read-out: CHO IC50
in vivo = settings: male, Balb/C, mouse, po, 10 mg/kg
in vitro [5] = settings: mouse, pH 7.4
physchem [6] = settings: n-octanol/phosphate buffer (1:1), pH 7.4
in vitro [7] = settings: human, pH 7.4
[8] = Plasmodium falciparum, NF54, 72 h, pLDH assay, 72 h, read-out: Pf ABS IC50 NF54
[9] = Plasmodium falciparum, NF54, mean, supplement, read-out: PfNF54 IC50
[10] = K1, 72 h, read-out: Pf ABS IC50 K1
[11] = Plasmodium falciparum, NF54, 72 h, read-out: Pf ABS IC50 NF54
[12] = Plasmodium falciparum, NF54, read-out: PfNF54 IC50
[13] = K1, mean, supplement, read-out: PfK1 IC50
[14] = K1, pLDH assay, 72 h, read-out: Pf ABS IC50 K1

Row | pIC50 [3, 10] | pIC50 ([3]; K1, read-out: PfK1 IC50) | pIC50 [2, 11] | pIC50 [2, 12] | SMILES | solubility thermodynamic at 20 h (physchem [1]; aqueous solution) | pIC50 [2, 8] | pIC50 [2, 9] | pIC50 [4] | further results
1 | – | – | – | – | CC(C)(O)c1ccc(-c2ccnc3ccc(-c4ccc(C(F)(F)F)nc4)nc23)cn1 [Compound 32, 2-[5-[6-[6-(Trifluoromethyl)pyridin-3-yl]-1,5-naphthyridin-4-yl]pyridin-2-yl]propan-2-ol] | < 5 µM | 6.68 | 6.68 | – | –
2 | 6.34 | 6.33 | 6.85 | 6.84 | CC(C)(O)C(=O)N1CC=C(c2ccc3nccc(-c4ccnc(C(F)(F)F)c4)c3n2)CC1 [Compound 17, 2-Hydroxy-2-methyl-1-[4-[8-[2-(trifluoromethyl)pyridin-4-yl]-1,5-naphthyridin-2-yl]-3,6-dihydro-2H-pyridin-1-yl]propan-1-one] | – | – | – | < 4.30 | –
3 | 6.46 | 6.45 | 7.29 | 7.29 | O[C@H]1CN(c2cc(-c3ccc4nccc(-c5ccnc(C(F)(F)F)c5)c4n3)ccn2)C[C@@H]1O [Compound 16, (3S,4S)-1-[4-[8-[2-(Trifluoromethyl)pyridin-4-yl]-1,5-naphthyridin-2-yl]pyridin-2-yl]pyrrolidine-3,4-diol] | – | – | – | 4.55 | –
4 | 6.82 | 6.82 | 7.43 | 7.42 | CC(C)(O)c1ccc(-c2ccnc3ccc(-c4cccc(CC(N)=O)c4)nc23)cn1 [Compound 26, 2-[3-[8-[6-(2-Hydroxypropan-2-yl)pyridin-3-yl]-1,5-naphthyridin-2-yl]phenyl]acetamide] | – | – | – | 4.52 | –
5 | – | – | – | – | Cn1ccc(-c2ccc3nccc(-c4ccc(C(C)(C)O)cc4)c3n2)cc1=O [Compound 25, 4-[8-[4-(2-Hydroxypropan-2-yl)phenyl]-1,5-naphthyridin-2-yl]-1-methylpyridin-2-one] | 190 µM (≈ 70.6 µg/mL) | 5.68 | 5.67 | – | –
6 | 6.55 | 6.56 | 6.85 | 6.84 | Cn1ccc(-c2ccc3nccc(-c4ccnc(C(C)(C)O)c4)c3n2)cc1=O [Compound 23, 4-[8-[2-(2-Hydroxypropan-2-yl)pyridin-4-yl]-1,5-naphthyridin-2-yl]-1-methylpyridin-2-one] | – | – | – | < 4.30 | –
7 | – | – | – | – | CC(C)(O)c1ccc(-c2ccnc3ccc(-c4ccnc(N5C[C@H](O)[C@@H](O)C5)c4)nc23)cn1 [Compound 28, (3S,4S)-1-[4-[8-[6-(2-Hydroxypropan-2-yl)pyridin-3-yl]-1,5-naphthyridin-2-yl]pyridin-2-yl]pyrrolidine-3,4-diol] | 20 µM (≈ 8.87 µg/mL) | 7.37 | 7.37 | – | pIC50 [3, 13]: 7.28; pIC50 [3, 14]: 7.28; pIC50 ([4]; one biological replicate): < 4.30
8 | – | – | – | – | CC(C)(O)c1cccc(-c2ccc3nccc(-c4ccc(C(C)(C)O)nc4)c3n2)c1 [Compound 30, 2-[3-[8-[6-(2-Hydroxypropan-2-yl)pyridin-3-yl]-1,5-naphthyridin-2-yl]phenyl]propan-2-ol] | 55 µM (≈ 22 µg/mL) | 7.00 | 6.98 | – | pIC50 [3, 13]: 7.46; pIC50 [3, 14]: 7.47; pIC50 ([4]; one biological replicate): 5.52
9 | 5.80 | 5.79 | 6.51 | 6.51 | NC(=O)Cc1cccc(-c2ccc3nccc(-c4ccnc(C(F)(F)F)c4)c3n2)c1 [Compound 15, 2-[3-[8-[2-(Trifluoromethyl)pyridin-4-yl]-1,5-naphthyridin-2-yl]phenyl]acetamide] | – | – | – | < 4.30 | –
10 | – | – | – | – | CC[C@H]1CN2CCc3cc(OC)c(OC)cc3[C@@H]2C[C@@H]1C[C@H]1NCCc2cc(OC)c(OC)cc21 [Emetine, reference compound] | – | – | – | > 8.52 | –
11 | – | – | – | – | CC(C)(O)c1ccc(-c2ccnc3ccc(-c4cccc(C(C)(C)O)c4F)nc23)cn1 [Compound 31, 2-[2-Fluoro-3-[8-[6-(2-hydroxypropan-2-yl)pyridin-3-yl]-1,5-naphthyridin-2-yl]phenyl]propan-2-ol] | 10 µM (≈ 4.17 µg/mL) | 5.64 | 5.63 | – | pIC50 [3, 13]: 6.33; pIC50 [3, 14]: 6.33
12 | – | – | – | – | Cn1ccc(-c2ccc3nccc(-c4ccc(C(C)(C)O)nc4)c3n2)cc1=O [Compound 24, 4-[8-[6-(2-Hydroxypropan-2-yl)pyridin-3-yl]-1,5-naphthyridin-2-yl]-1-methylpyridin-2-one] | 175 µM (≈ 65.2 µg/mL) | 7.44 | 7.44 | – | bioavailability (in vivo): 10%; pIC50 [3, 13]: 6.97; pIC50 [3, 14]: 6.96; CLint scaled at 1 µM (in vitro [5]; microsomes): < 45.7 mL/min/kg; CLint scaled at 1 µM (in vitro [5]; mouse liver microsomes): < 59.4 mL/min/kg; logD at 3 h (physchem [6]): 1.98; pIC50 ([4]; one biological replicate): 4.92; CLint scaled at 1 µM (in vitro [7]; microsomes): < 13.4 mL/min/kg; CLint scaled at 1 µM (in vitro [7]; pooled human liver microsomes): < 17.4 mL/min/kg; in vivo mouse CLb (total body clearance from whole blood, iv 3 mg/kg): 110 mL/min/kg; in vivo mouse CLu (unbound blood clearance from CLb and plasma protein binding): 379 mL/min/kg
13 | – | – | – | – | Cn1cc(-c2ccnc3ccc(-c4cccc(S(C)(=O)=O)c4)nc23)ccc1=O [Compound 33, 1-Methyl-5-[6-(3-methylsulfonylphenyl)-1,5-naphthyridin-4-yl]pyridin-2-one] | 55 µM (≈ 21.5 µg/mL) | 7.02 | 7.02 | – | –
14 | – | – | 7.38 | 7.37 | C[S+]([O-])c1cccc(-c2ccc3nccc(-c4ccnc(C(F)(F)F)c4)c3n2)c1 (centres unmarked) [Compound 11, 2-(3-Methylsulfinylphenyl)-8-[2-(trifluoromethyl)pyridin-4-yl]-1,5-naphthyridine] | – | – | – | 4.85 | –
15 | – | – | 7.11 | 7.11 | Cn1ccc(-c2ccc3nccc(-c4ccnc(C(F)(F)F)c4)c3n2)cc1=O [Compound 13, 1-Methyl-4-[8-[2-(trifluoromethyl)pyridin-4-yl]-1,5-naphthyridin-2-yl]pyridin-2-one] | – | – | – | – | –
16 | – | – | – | – | CS(=O)(=O)c1cccc(-c2ccc3nccc(-c4ccc(C(=O)N5CC[C@H](N)C5)cc4)c3n2)c1 [Compound 38, [(3S)-3-Aminopyrrolidin-1-yl]-[4-[6-(3-methylsulfonylphenyl)-1,5-naphthyridin-4-yl]phenyl]methanone] | 180 µM (≈ 85.1 µg/mL) | 7.32 | 7.31 | – | pIC50 ([4]; one biological replicate): 4.55
17 | – | – | 6.39 | 6.39 | Cn1cc(-c2ccc3nccc(-c4cccc(S(C)(=O)=O)c4)c3n2)ccc1=O [Compound 20, 1-Methyl-5-[8-(3-methylsulfonylphenyl)-1,5-naphthyridin-2-yl]pyridin-2-one] | – | – | – | 4.47 | –
18 | 5.80 | 5.79 | 7.34 | 7.33 | CC(C)(O)c1ccc(-c2ccnc3ccc(-c4cccc(CS(C)(=O)=O)c4)nc23)cn1 [Compound 29, 2-[5-[6-[3-(Methylsulfonylmethyl)phenyl]-1,5-naphthyridin-4-yl]pyridin-2-yl]propan-2-ol] | – | – | – | < 4.30 | –
19 | – | – | – | – | CCN(CC)CCCC(C)Nc1ccnc2cc(Cl)ccc12 (centres unmarked) [Chloroquine, reference compound] | – | – | – | – | pIC50 ([2]; Plasmodium falciparum, NF54, 72 h, read-out: PfNF54 IC50): 7.96
20 | – | – | – | – | CS(=O)(=O)c1cccc(-c2ccc3nccc(-c4cccc(S(C)(=O)=O)c4)c3n2)c1 [Compound 18, 2,8-Bis(3-methylsulfonylphenyl)-1,5-naphthyridine] | – | 7.80 | 7.76 | – | solubility thermodynamic at 20 h (physchem [1]): < 5 µM; pIC50 ([2]; pLDH assay, 72 h, read-out: Pf ABS IC50 NF54): 7.77; pIC50 ([4]; one biological replicate): 4.43

Row | SMILES | pIC50 [3, 10] | pIC50 ([3]; K1, read-out: PfK1 IC50) | pIC50 [2, 11] | pIC50 [2, 12] | solubility thermodynamic at 20 h (physchem [1]; aqueous solution) | pIC50 [2, 8] | pIC50 [2, 9] | pIC50 [4] | further results
21 | CS(=O)(=O)c1cccc(-c2ccc3nccc(-c4cccc(C(=O)N5CCC(O)C5)c4)c3n2)c1 (centres unmarked) [Compound 36, [3-[6-(3-Methylsulfonylphenyl)-1,5-naphthyridin-4-yl]phenyl]-(3-hydroxypyrrolidin-1-yl)methanone] | 6.62 | 6.61 | 6.66 | 6.66 | 50 µM (≈ 23.7 µg/mL) | – | – | 4.48 | –
22 | CS(=O)(=O)c1cccc(-c2ccc3nccc(-c4ccn(CCO)c(=O)c4)c3n2)c1 [Compound 35, 1-(2-Hydroxyethyl)-4-[6-(3-methylsulfonylphenyl)-1,5-naphthyridin-4-yl]pyridin-2-one] | – | – | 6.70 | 6.70 | 195 µM (≈ 82.2 µg/mL) | – | – | < 4.30 | –
23 | O=c1cc(-c2ccc3nccc(-c4ccnc(C(F)(F)F)c4)c3n2)ccn1CCO [Compound 14, 1-(2-Hydroxyethyl)-4-[8-[2-(trifluoromethyl)pyridin-4-yl]-1,5-naphthyridin-2-yl]pyridin-2-one] | 6.47 | 6.46 | – | 6.88 | – | – | – | – | –
24 | Cn1ccc(-c2ccnc3ccc(-c4cccc(S(C)(=O)=O)c4)nc23)cc1=O [Compound 34, 1-Methyl-4-[6-(3-methylsulfonylphenyl)-1,5-naphthyridin-4-yl]pyridin-2-one] | 6.47 | 6.47 | – | 6.76 | 175 µM (≈ 68.5 µg/mL) | – | – | 4.36 | –
